IC50 data for 24 compounds are collected here from patent US10221177B2 (HYDRA BIOSCIENCES, INC., priority 2014, dated 2019).

pIC50: −log10 of the molar value.

Sequence of human TRPA1 (O75762 whole entry, the tested form may be a part): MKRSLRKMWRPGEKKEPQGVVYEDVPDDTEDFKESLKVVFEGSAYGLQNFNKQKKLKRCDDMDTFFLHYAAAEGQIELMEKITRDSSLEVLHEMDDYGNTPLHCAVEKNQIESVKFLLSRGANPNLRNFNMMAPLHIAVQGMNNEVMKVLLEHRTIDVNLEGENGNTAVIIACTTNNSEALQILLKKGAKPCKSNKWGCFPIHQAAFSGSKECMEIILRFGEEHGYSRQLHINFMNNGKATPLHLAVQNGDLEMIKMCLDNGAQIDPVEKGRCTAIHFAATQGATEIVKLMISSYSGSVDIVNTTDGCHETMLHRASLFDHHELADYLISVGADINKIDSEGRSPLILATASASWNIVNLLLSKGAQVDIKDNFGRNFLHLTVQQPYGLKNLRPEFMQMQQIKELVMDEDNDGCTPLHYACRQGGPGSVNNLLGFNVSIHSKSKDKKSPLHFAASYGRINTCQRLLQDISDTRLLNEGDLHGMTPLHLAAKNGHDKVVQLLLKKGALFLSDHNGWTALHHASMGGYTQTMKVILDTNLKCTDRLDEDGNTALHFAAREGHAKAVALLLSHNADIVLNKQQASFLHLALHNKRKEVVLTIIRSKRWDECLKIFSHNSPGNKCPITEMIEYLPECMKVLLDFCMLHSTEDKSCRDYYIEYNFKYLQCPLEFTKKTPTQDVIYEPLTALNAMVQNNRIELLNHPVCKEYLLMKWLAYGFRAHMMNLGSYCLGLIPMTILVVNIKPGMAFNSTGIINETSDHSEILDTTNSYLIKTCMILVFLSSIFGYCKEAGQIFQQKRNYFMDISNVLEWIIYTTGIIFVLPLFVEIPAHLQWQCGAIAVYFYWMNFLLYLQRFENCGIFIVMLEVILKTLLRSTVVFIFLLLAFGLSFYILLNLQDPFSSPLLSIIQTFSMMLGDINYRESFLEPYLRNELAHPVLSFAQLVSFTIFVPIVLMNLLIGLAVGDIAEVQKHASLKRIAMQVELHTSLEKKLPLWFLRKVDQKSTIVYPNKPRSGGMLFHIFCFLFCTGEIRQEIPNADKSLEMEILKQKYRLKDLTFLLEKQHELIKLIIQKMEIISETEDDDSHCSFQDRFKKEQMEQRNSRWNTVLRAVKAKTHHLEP

For the test, the target named is human TRPA1 (Homo sapiens (Human), UniProt O75762). The experiment in a line: In vitro inhibition of human TRPA1, whole cell patch configuration. The test is classed as cell-based. Particulars: current activation 10 μM AITC, tested concentrations 320 pM to 3.2 μM, read-out: hTRPA1 IC50. In short, it runs like this:
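Whole-cell patch clamp, bath 150 mM NaCl, 10 mM HEPES, 1 mM EGTA, 3 mM MgCl2, pH 7.4 (sometimes 2 mM CaCl2, 1 mM MgCl2). Currents recorded continuously at −60 mV or by 400 ms ramps from −40 mV holding every 4 s; inward/outward currents taken at −80/80 mV, with controlled-temperature focal perfusion.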
In the case of `Cc1cc(Cn2c(=O)c3c(ncn3[C@@H](C)C(=O)Nc3csc(-c4cnc(C(F)(F)F)c(C)c4)n3)n(C)c2=O)no1` [Compound 94, (S)-2-(3-methyl-1-((5-methylisoxazol-3-yl)methyl)-2,6-dioxo-2,3-dihydro-1H-purin-7(6H)-yl)-N-(2-(5-methyl-6-(trifluoromethyl)pyridin-3-yl)thiazol-4-yl)propanamide], the pIC50 – broadly, −log10 of the IC50, conventionally taken in molar units – was 8.52. The same measure for `C[C@@H](C(=O)Nc1cccc(-c2ccc(C(F)(F)F)nc2)n1)n1cnc2c1c(=O)n(Cc1ccon1)c(=O)n2C` [Compound 95, (S)-2-(1-(isoxazol-3-ylmethyl)-3-methyl-2,6-dioxo-2,3-dihydro-1H-purin-7(6H)-yl)-N-(6′-(trifluoromethyl)-[2,3′-bipyridin]-6-yl)propanamide]: 8.05; for `Cc1cc(Cn2c(=O)c3c(ncn3[C@@H](C)C(=O)Nc3cncc(-c4cnc(N5CCC[C@H]5C(F)(F)F)nc4)n3)n(C)c2=O)no1` [Compound 96, (S)-2-(3-methyl-1-((5-methylisoxazol-3-yl)methyl)-2,6-dioxo-2,3-dihydro-1H-purin-7(6H)-yl)-N-(6-(2-((S)-2-(trifluoromethyl)pyrrolidin-1-yl)pyrimidin-5-yl)pyrazin-2-yl)propanamide]: 8.70; for `CC(=O)Cn1c(=O)c2c(ncn2[C@@H](C)C(=O)Nc2csc(-c3cnc(C)c(C(F)(F)F)c3)n2)n(C)c1=O` [Compound 98, (S)-2-(3-methyl-2,6-dioxo-1-(2-oxopropyl)-2,3-dihydro-1H-purin-7(6H)-yl)-N-(2-(6-methyl-5-(trifluoromethyl)pyridin-3-yl)thiazol-4-yl)propanamide]: 8.52. Under `CCC(=O)Cn1c(=O)c2c(ncn2[C@@H](C)C(=O)Nc2csc(-c3cnc(C)c(C(F)(F)F)c3)n2)n(C)c1=O` [Compound 99, (S)-2-(3-methyl-2,6-dioxo-1-(2-oxobutyl)-2,3-dihydro-1H-purin-7(6H)-yl)-N-(2-(6-methyl-5-(trifluoromethyl)pyridin-3-yl)thiazol-4-yl)propanamide] stands 9.00; under `Cc1cc(Cn2c(=O)c3c(ncn3[C@@H](C)C(=O)Nc3csc(-c4cnc(C)c(F)c4)n3)n(C)c2=O)no1` [Compound 100, (S)—N-(2-(5-fluoro-6-methylpyridin-3-yl)thiazol-4-yl)-2-(3-methyl-1-((5-methylisoxazol-3-yl)methyl)-2,6-dioxo-2,3-dihydro-1H-purin-7(6H)-yl)propanamide], 8.10; under `CCC(=O)Cn1c(=O)c2c(ncn2[C@@H](C)C(=O)Nc2csc(-c3cnc(C)c(F)c3)n2)n(C)c1=O` [Compound 101, (S)—N-(2-(5-fluoro-6-methylpyridin-3-yl)thiazol-4-yl)-2-(3-methyl-2,6-dioxo-1-(2-oxobutyl)-2,3-dihydro-1H-purin-7(6H)-yl)propanamide], 7.92. Under `Cc1noc(Cn2c(=O)c3c(ncn3[C@@H](C)C(=O)Nc3csc(-c4cnc(C(F)(F)F)c(C)c4)n3)n(C)c2=O)n1` [Compound 107, (S)-2-(3-methyl-1-((3-methyl-1,2,4-oxadiazol-5-yl)methyl)-2,6-dioxo-2,3-dihydro-1H-purin-7(6H)-yl)-N-(2-(5-methyl-6-(trifluoromethyl)pyridin-3-yl)thiazol-4-yl)propanamide] stands 9.00; under `Cc1noc(Cn2c(=O)c3c(ncn3[C@@H](C)C(=O)Nc3csc(-c4cnc(C)c(C(F)(F)F)c4)n3)n(C)c2=O)n1` [Compound 108, (S)-2-(3-methyl-1-((3-methyl-1,2,4-oxadiazol-5-yl)methyl)-2,6-dioxo-2,3-dihydro-1H-purin-7(6H)-yl)-N-(2-(6-methyl-5-(trifluoromethyl)pyridin-3-yl)thiazol-4-yl)propanamide], 9.00; under `CC(=O)Cn1c(=O)c2c(ncn2[C@@H](C)C(=O)Nc2cncc(-c3cnc(C)c(C(F)(F)F)c3)n2)n(C)c1=O` [Compound 109, (S)-2-(3-methyl-2,6-dioxo-1-(2-oxopropyl)-2,3-dihydro-1H-purin-7(6H)-yl)-N-(6-(6-methyl-5-(trifluoromethyl)pyridin-3-yl)pyrazin-2-yl)propanamide], 8.10. As for `Cc1cc(Cn2c(=O)c3c(ncn3[C@@H](C)C(=O)Nc3ccnc(-c4cnc(C)c(C(F)(F)F)c4)n3)n(C)c2=O)no1` [Compound 110, (S)-2-(3-methyl-1-((5-methylisoxazol-3-yl)methyl)-2,6-dioxo-2,3-dihydro-1H-purin-7(6H)-yl)-N-(2-(6-methyl-5-(trifluoromethyl)pyridin-3-yl)pyrimidin-4-yl)propanamide], the pIC50 is 9.00. Under `CC(=O)Cn1c(=O)c2c(ncn2[C@@H](C)C(=O)Nc2ccnc(-c3cnc(C)c(C(F)(F)F)c3)n2)n(C)c1=O` [Compound 111] stands 8.52. The same measure for `Cc1cc(Cn2c(=O)c3c(ncn3[C@@H](C)C(=O)Nc3csc(-c4cnc(C)c(C(F)(F)F)c4)n3)n(C)c2=O)no1` [Compound 112, (S)-2-(3-methyl-1-((5-methylisoxazol-3-yl)methyl)-2,6-dioxo-2,3-dihydro-1H-purin-7(6H)-yl)-N-(2-(6-methyl-5-(trifluoromethyl)pyridin-3-yl)thiazol-4-yl)propanamide]: 9.00. The same measure for `CCC(=O)Cn1c(=O)c2c(ncn2[C@@H](C)C(=O)Nc2cccc(-c3cnc(N4CC5CC5C4)cn3)n2)n(C)c1=O` (stereo partly drawn) [Compound 113, (2S)—N-(6-(5-(3-azabicyclo[3.1.0]hexan-3-yl)pyrazin-2-yl)pyridin-2-yl)-2-(3-methyl-2,6-dioxo-1-(2-oxobutyl)-2,3-dihydro-1H-purin-7(6H)-yl)propanamide]: 8.70.

For `Cc1cc(Cn2c(=O)c3c(ncn3[C@@H](C)C(=O)Nc3ccnc(-c4cnc(N5CCC[C@H]5C(F)(F)F)nc4)n3)n(C)c2=O)no1` [Compound 114, (S)-2-(3-methyl-1-((5-methylisoxazol-3-yl)methyl)-2,6-dioxo-2,3-dihydro-1H-purin-7(6H)-yl)-N-(2′-((S)-2-(trifluoromethyl)pyrrolidin-1-yl)-[2,5′-bipyrimidin]-4-yl)propanamide], the pIC50 was 8.70. Under `Cc1cc(Cn2c(=O)c3c(ncn3[C@@H](C)C(=O)Nc3cccc(-c4cnc(N5CCC[C@H]5C(F)(F)F)nc4)n3)n(C)c2=O)no1` [Compound 115, (S)-2-(3-methyl-1-((5-methylisoxazol-3-yl)methyl)-2,6-dioxo-2,3-dihydro-1H-purin-7(6H)-yl)-N-(6-(2-((S)-2-(trifluoromethyl)pyrrolidin-1-yl)pyrimidin-5-yl)pyridin-2-yl)propanamide] stands 9.00; under `CCC(=O)Cn1c(=O)c2c(ncn2[C@@H](C)C(=O)Nc2cccc(-c3ccc(C(F)(F)F)nc3)n2)n(C)c1=O` [Compound 116, (S)-2-(3-methyl-2,6-dioxo-1-(2-oxobutyl)-2,3-dihydro-1H-purin-7(6H)-yl)-N-(6′-(trifluoromethyl)-[2,3′-bipyridin]-6-yl)propanamide], less than 5.49. The same measure for `C[C@@H](C(=O)Nc1cccc(-c2cnc(C(F)(F)F)nc2)n1)n1cnc2c1c(=O)n(Cc1ccon1)c(=O)n2C` [Compound 117, (S)-2-(1-(isoxazol-3-ylmethyl)-3-methyl-2,6-dioxo-2,3-dihydro-1H-purin-7(6H)-yl)-N-(6-(2-(trifluoromethyl)pyrimidin-5-yl)pyridin-2-yl)propanamide]: 7.74. Under `Cc1cc(Cn2c(=O)c3c(ncn3[C@@H](C)C(=O)Nc3cncc(-c4ccc(C(F)(F)F)nc4)n3)n(C)c2=O)no1` [Compound 118, (S)-2-(3-methyl-1-((5-methylisoxazol-3-yl)methyl)-2,6-dioxo-2,3-dihydro-1H-purin-7(6H)-yl)-N-(6-(6-(trifluoromethyl)pyridin-3-yl)pyrazin-2-yl)propanamide] stands 7.77; under `C[C@@H](C(=O)Nc1cncc(-c2ccc(C(F)(F)F)nc2)n1)n1cnc2c1c(=O)n(Cc1ccon1)c(=O)n2C` [Compound 119, (S)-2-(1-(isoxazol-3-ylmethyl)-3-methyl-2,6-dioxo-2,3-dihydro-1H-purin-7(6H)-yl)-N-(6-(6-(trifluoromethyl)pyridin-3-yl)pyrazin-2-yl)propanamide], 7.55; under `C[C@@H](C(=O)Nc1cncc(-c2cnc(C(F)(F)F)nc2)n1)n1cnc2c1c(=O)n(Cc1ccon1)c(=O)n2C` [Compound 120, (S)-2-(1-(isoxazol-3-ylmethyl)-3-methyl-2,6-dioxo-2,3-dihydro-1H-purin-7(6H)-yl)-N-(6-(2-(trifluoromethyl)pyrimidin-5-yl)pyrazin-2-yl)propanamide], 7.59.

As for `COc1ncc(-c2cccc(NC(=O)[C@H](C)n3cnc4c3c(=O)n(Cc3cc(C)on3)c(=O)n4C)n2)cc1C(F)(F)F` [Compound 121, (S)—N-(6′-methoxy-5′-(trifluoromethyl)-[2,3′-bipyridin]-6-yl)-2-(3-methyl-1-((5-methylisoxazol-3-yl)methyl)-2,6-dioxo-2,3-dihydro-1H-purin-7(6H)-yl)propanamide], the pIC50 is 9.00. The same measure for `CCOc1ncc(-c2cccc(NC(=O)[C@H](C)n3cnc4c3c(=O)n(Cc3cc(C)on3)c(=O)n4C)n2)cc1C(F)(F)F` [Compound 122, (S)—N-(6′-ethoxy-5′-(trifluoromethyl)-[2,3′-bipyridin]-6-yl)-2-(3-methyl-1-((5-methylisoxazol-3-yl)methyl)-2,6-dioxo-2,3-dihydro-1H-purin-7(6H)-yl)propanamide]: 9.00. The same measure for `Cc1cc(Cn2c(=O)c3c(ncn3[C@@H](C)C(=O)Nc3cccc(-c4cnc(Cl)c(C(F)(F)F)c4)n3)n(C)c2=O)no1` [Compound 123, (S)—N-(6′-chloro-5′-(trifluoromethyl)-[2,3′-bipyridin]-6-yl)-2-(3-methyl-1-((5-methylisoxazol-3-yl)methyl)-2,6-dioxo-2,3-dihydro-1H-purin-7(6H)-yl)propanamide]: 8.70.
